Measurements as given in patent publication US10265307B2, “Thiazolecarboxamides and pyridinecarboxamide compounds useful as Pim kinase inhibitors” (Incyte Corporation, priority 2013, dated 2019).

Legend:
Format in all cases: biochemical
Pim-3 = Pim-3 (Homo sapiens (Human), UniProt Q86V86); assay: Pim-3 kinase assay; settings: 1 mM ATP; read-out: Pim3 IC50
Outline: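 AlphaScreen-type assay: […] Pim-3 phosphorylates 0.05 μM biotin-BAD peptide with 1 mM ATP, 1 h at 25 °C, pH 7.5 Tris buffer with MgCl2 and DTT. EDTA stop with phospho-BAD (Ser112) antibody and donor/acceptor beads, 1 h dark incubation before reading.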

Pim-1 = Pim-1 (Homo sapiens (Human), UniProt P11309); assay: Pim-1 kinase assay; settings: 1 mM ATP; read-out: Pim1 IC50
Pim-1, sequence (P11309 whole entry): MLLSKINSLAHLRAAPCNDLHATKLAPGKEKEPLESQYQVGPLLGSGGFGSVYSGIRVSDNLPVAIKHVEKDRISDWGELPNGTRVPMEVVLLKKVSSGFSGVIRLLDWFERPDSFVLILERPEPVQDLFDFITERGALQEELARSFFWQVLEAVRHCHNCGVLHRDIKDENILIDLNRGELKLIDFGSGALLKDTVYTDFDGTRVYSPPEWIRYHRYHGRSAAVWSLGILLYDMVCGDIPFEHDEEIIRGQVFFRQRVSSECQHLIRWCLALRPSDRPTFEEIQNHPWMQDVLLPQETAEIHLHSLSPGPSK
Protocol: Supplementation of the STOP buffer with beads and stopping the reactions were done under reduced light. Prior to the stopping reactions STOP buffer with beads was pre-incubated for 1 h in the dark at room temperature. After stopping the reactions, plates were incubated for 1 h in the dark at room temperature before reading on a PHERAstar FS plate reader (BMG Labtech) under reduced light.

Pim-2 = Pim-2 (Homo sapiens (Human), UniProt Q9P1W9); assay: Pim-2 kinase assay; settings: 1 mM ATP; read-out: Pim2 IC50
Pim-2, sequence (Q9P1W9 whole entry): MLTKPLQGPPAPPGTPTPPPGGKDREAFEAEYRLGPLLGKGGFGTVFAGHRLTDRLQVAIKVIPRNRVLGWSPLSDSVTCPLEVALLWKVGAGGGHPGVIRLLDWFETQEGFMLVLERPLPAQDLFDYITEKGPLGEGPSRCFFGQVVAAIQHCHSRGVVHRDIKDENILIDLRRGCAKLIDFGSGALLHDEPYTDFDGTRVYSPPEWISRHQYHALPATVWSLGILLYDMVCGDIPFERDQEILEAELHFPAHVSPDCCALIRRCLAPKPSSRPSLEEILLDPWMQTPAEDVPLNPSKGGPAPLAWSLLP

Measured: IC50

COc1ccc(F)c(-c2nc(C(=O)Nc3cnc4c(c3N3C[C@H](C)C[C@H](N)C3)CCO4)ccc2F)c1F [Example 73, N-{4-[(3S,5R)-3-Amino-5-methylpiperidin-1-yl]-2,3-dihydrofuro[2,3-b]pyridin-5-yl}-6-(2,6-difluoro-3-methoxyphenyl)-5-fluoropyridine-2-carboxamide]
≤ 100 nM: all assays above

COc1ccc(F)c(-c2nc(C(=O)Nc3cnc4c(c3N3C[C@@H](N)[C@H](O)[C@@H](C)C3)CCO4)ccc2F)c1F [Example 74, N-{4-[(3R,4R,5S)-3-Amino-4-hydroxy-5-methylpiperidin-1-yl]-2,3-dihydrofuro[2,3-b]pyridin-5-yl}-6-(2,6-difluoro-3-methoxyphenyl)-5-fluoropyridine-2-carboxamide]
≤ 100 nM: all assays above

C[C@H]1CN(c2c(NC(=O)c3nc(-c4c(F)cccc4F)sc3N)cnc3c2CCO3)C[C@@H](N)[C@@]1(C)O [Example 75, 5-Amino-N-{4-[(3R,4S,5S)-3-amino-4-hydroxy-4,5-dimethylpiperidin-1-yl]-2,3-dihydrofuro[2,3-b]pyridin-5-yl}-2-(2,6-difluorophenyl)-1,3-thiazole-4-carboxamide]
≤ 100 nM: all assays above

C[C@H]1CN(c2c(NC(=O)c3nc(-c4c(F)cccc4F)sc3N)cnc3c2CCO3)C[C@@H](N)[C@]1(C)O [Example 76, 5-Amino-N-{4-[(3R,4R,5S)-3-amino-4-hydroxy-4,5-dimethylpiperidin-1-yl]-2,3-dihydrofuro[2,3-b]pyridin-5-yl}-2-(2,6-difluorophenyl)-1,3-thiazole-4-carboxamide]
≤ 100 nM: all assays above
